How the values were obtained:
[1] = humans, cited from earlier work
[2] = test system: DENV2 strain NGC subgenomic replicon; experiment: Replicon assay (luciferase, A549 replicon cell line); format: cell-based; details: Dengue virus, A549 replicon cells, 48 hour
Experimental: The DENV subgenomic replicon was derived from the DENV2 strain NGC and consists of a luciferase reporter and a puromycin resistance gene for stable transfection. (7) Only the nonstructural proteins NS1, NS2A, NS2B, NS3, NS4A, NS4B, and NS5 were represented in the replicon construct. Of the nonstructural proteins, only NS1 is known to be glycosylated.
The stably transfected A549 replicon cell line was plated into a 96-well plate in the presence of various concentrations of test compounds and incubated for 48 hour at 37° C. in 5% CO2 incubator. The luciferase activity of the replicon treated with various concentrations of the test compound was measured using EnduRen (Promega) at a 1:1000 dilution followed by incubation for 2 hrs before the luminescence was read using a Tecan plate-reader. The data was plotted against the log transformation of the concentration of the compounds to obtain a dose-response curve to calculate the EC50 value.

DENV4 = experiment: Cell-based flaviviral immunodetection assay (CFI), DENV4; details: Dengue virus, BHK-21; DENV4, BHK21 cells, 48 hours

**Q.** Which “maximum tolerated dose (MTD)” value ([1]; HIV drug trials, for 184 days) does the source give for `CCCC(=O)O[C@H]1CN2CC[C@H](O)[C@@H]2[C@@H](O)[C@@H]1O.Cl` [Celgosivir, celgosivir] here?
**A.** The value was 400 mg per day.

**Q.** What about the adverse events [1] of the same molecule?
**A.** The adverse events was “largely gastrointestinal, namely flatulence and diarrhea, of mild to moderate intensity”.

**Q.** What about the serious adverse events [1] of the same molecule?
**A.** The serious adverse events was “No serious adverse events have been reported”.

**Q.** What about the serum creatine kinase [1] of the same molecule?
**A.** The serum creatine kinase was “Asymptomatic elevations”.

**Q.** What about the “time to reversal of creatine kinase elevations after discontinuation” value [1] of the same molecule?
**A.** The value was at most 2 weeks.

**Q.** What about the EC50 [2] of the same molecule?
**A.** Its EC50 is 2200 nM.

**Q.** And the EC50 (DENV4)?
**A.** The EC50 was 310 ± 120 nM.
